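Growth conditions: 96-well plates. Treatment: test compound, 48 hours, 5 concentrations. Analysis: linear interpolation between bracketing concentrations; unreached endpoints set to highest concentration. TGI marks complete inhibition of growth.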
Assays:
Assay in all cases: NCI-60 cell line screen, 48 h
SK-MEL-28 melanoma = test system: SK-MEL-28 melanoma
NCI-H226 lung = test system: NCI-H226 lung
DU-145 prostate = test system: DU-145 prostate
U251 CNS = test system: U251 CNS
RXF 393 renal = test system: RXF 393 renal
SR leukemia = test system: SR leukemia
SNB-75 CNS = test system: SNB-75 CNS
SF-268 CNS = test system: SF-268 CNS
SK-MEL-5 melanoma = test system: SK-MEL-5 melanoma
MOLT-4 leukemia = test system: MOLT-4 leukemia
CAKI-1 renal = test system: CAKI-1 renal
NCI-H460 lung = test system: NCI-H460 lung
NCI-H23 lung = test system: NCI-H23 lung
MALME-3M melanoma = test system: MALME-3M melanoma
UACC-62 melanoma = test system: UACC-62 melanoma
OVCAR-3 ovarian = test system: OVCAR-3 ovarian
HS 578T breast = test system: HS 578T breast
ACHN renal = test system: ACHN renal
UO-31 renal = test system: UO-31 renal
NCI-H522 lung = test system: NCI-H522 lung
EKVX NSCLC = test system: EKVX NSCLC
SK-OV-3 ovarian = test system: SK-OV-3 ovarian
HOP-92 NSCLC = test system: HOP-92 NSCLC
HCC-2998 colon = test system: HCC-2998 colon
HCT-116 colon = test system: HCT-116 colon
OVCAR-8 ovarian = test system: OVCAR-8 ovarian
SN12C renal = test system: SN12C renal
CCRF-CEM leukemia = test system: CCRF-CEM leukemia
A549 NSCLC = test system: A549 NSCLC
OVCAR-4 ovarian = test system: OVCAR-4 ovarian
LOX IMVI melanoma = test system: LOX IMVI melanoma
HCT-15 colon = test system: HCT-15 colon
HL-60(TB) leukemia = test system: HL-60(TB) leukemia
KM12 colon = test system: KM12 colon
RPMI-8226 leukemia = test system: RPMI-8226 leukemia
HT29 colon = test system: HT29 colon
PC-3 prostate = test system: PC-3 prostate
OVCAR-5 ovarian = test system: OVCAR-5 ovarian
UACC-257 melanoma = test system: UACC-257 melanoma
TK-10 renal = test system: TK-10 renal
BT-549 breast = test system: BT-549 breast
COLO 205 colon = test system: COLO 205 colon
IGROV1 ovarian = test system: IGROV1 ovarian
MDA-MB-435 = test system: MDA-MB-435
T-47D breast = test system: T-47D breast
SW-620 colon = test system: SW-620 colon
HOP-62 NSCLC = test system: HOP-62 NSCLC
786-0 renal = test system: 786-0 renal
K-562 leukemia = test system: K-562 leukemia
A498 renal = test system: A498 renal
M14 melanoma = test system: M14 melanoma
SK-MEL-2 melanoma = test system: SK-MEL-2 melanoma
SNB-19 CNS = test system: SNB-19 CNS
MDA-N = test system: MDA-N
NCI/ADR-RES ovarian = test system: NCI/ADR-RES ovarian
SF-295 CNS = test system: SF-295 CNS
MDA-MB-231 breast = test system: MDA-MB-231 breast
SF-539 CNS = test system: SF-539 CNS
MCF7 breast = test system: MCF7 breast

`CCOC(=O)CCC(NC(=O)c1ccc(Nc2cnc3ccc(C(F)(F)F)cc3n2)cc1)C(=O)OCC` (stereo not drawn) was tested, and the TGI (SK-MEL-28 melanoma) was greater than 100 µM, the TGI (NCI-H226 lung) was greater than 100 µM and the TGI (DU-145 prostate) was greater than 100 µM. It also gave a TGI (U251 CNS) greater than 100 µM, a TGI (RXF 393 renal) greater than 90.2 µM and a TGI (SR leukemia) greater than 100 µM. The TGI (SNB-75 CNS) was 29.9 µM, the TGI (SF-268 CNS) was greater than 100 µM and the TGI (SK-MEL-5 melanoma) was greater than 100 µM. For the same compound, the TGI (MOLT-4 leukemia) was greater than 100 µM, the TGI (CAKI-1 renal) was greater than 65.1 µM and the TGI (NCI-H460 lung) was greater than 100 µM. It also gave a TGI (NCI-H23 lung) greater than 72.5 µM, a TGI (MALME-3M melanoma) greater than 100 µM and a TGI (UACC-62 melanoma) greater than 77.5 µM. The TGI (OVCAR-3 ovarian) was greater than 100 µM, the TGI (HS 578T breast) was greater than 65.9 µM and the TGI (ACHN renal) was greater than 81.2 µM. It also gave a TGI (UO-31 renal) greater than 100 µM, a TGI (NCI-H522 lung) greater than 100 µM and a TGI (EKVX NSCLC) greater than 89.6 µM. The TGI (SK-OV-3 ovarian) was greater than 60.5 µM, the TGI (HOP-92 NSCLC) was greater than 43.1 µM and the TGI (HCC-2998 colon) was greater than 100 µM. It also gave a TGI (HCT-116 colon) greater than 100 µM, a TGI (OVCAR-8 ovarian) of 33.8 µM and a TGI (SN12C renal) greater than 100 µM. For the same compound, the TGI (CCRF-CEM leukemia) was greater than 100 µM, the TGI (A549 NSCLC) was greater than 100 µM and the TGI (OVCAR-4 ovarian) was greater than 74.3 µM. It also gave a TGI (LOX IMVI melanoma) greater than 100 µM, a TGI (HCT-15 colon) greater than 100 µM and a TGI (HL-60(TB) leukemia) greater than 100 µM. For the same compound, the TGI (KM12 colon) was greater than 85.3 µM, the TGI (RPMI-8226 leukemia) was greater than 100 µM and the TGI (HT29 colon) was greater than 100 µM. The TGI (PC-3 prostate) was greater than 100 µM, the TGI (OVCAR-5 ovarian) was greater than 100 µM and the TGI (UACC-257 melanoma) was greater than 100 µM. The TGI (TK-10 renal) was greater than 40.8 µM, the TGI (BT-549 breast) was 97.1 µM and the TGI (COLO 205 colon) was greater than 100 µM. For the same compound, the TGI (IGROV1 ovarian) was greater than 47.2 µM, the TGI (MDA-MB-435) was greater than 100 µM and the TGI (T-47D breast) was greater than 100 µM. It also gave a TGI (SW-620 colon) greater than 100 µM, a TGI (HOP-62 NSCLC) greater than 100 µM and a TGI (786-0 renal) greater than 56.6 µM. For the same compound, the TGI (K-562 leukemia) was greater than 100 µM, the TGI (A498 renal) was greater than 79 µM and the TGI (M14 melanoma) was greater than 100 µM. The TGI (SK-MEL-2 melanoma) was greater than 100 µM, the TGI (SNB-19 CNS) was greater than 63.7 µM and the TGI (MDA-N) was greater than 100 µM. It also gave a TGI (NCI/ADR-RES ovarian) of 52.7 µM, a TGI (SF-295 CNS) greater than 100 µM and a TGI (MDA-MB-231 breast) of 25.2 µM. The TGI (SF-539 CNS) was 39 µM and the TGI (MCF7 breast) was greater than 100 µM.

Compound `CCCSc1ccc2[nH]c(N3C(=O)/C(=C/c4cc(OC)c(OC)c(OC)c4)N=C3c3ccccc3)cc2c1` has a TGI (SK-MEL-28 melanoma) greater than 37.5 µM, a TGI (NCI-H226 lung) greater than 37.5 µM and a TGI (DU-145 prostate) greater than 37.5 µM. It also gave a TGI (U251 CNS) greater than 37.5 µM, a TGI (RXF 393 renal) of 19.9 µM and a TGI (SR leukemia) greater than 34.9 µM. It also gave a TGI (SNB-75 CNS) of 33.5 µM, a TGI (SF-268 CNS) greater than 37.5 µM and a TGI (SK-MEL-5 melanoma) of 19 µM. It also gave a TGI (MOLT-4 leukemia) greater than 37.5 µM, a TGI (CAKI-1 renal) greater than 37.5 µM and a TGI (NCI-H460 lung) greater than 37.5 µM. The TGI (NCI-H23 lung) was greater than 37.5 µM, the TGI (MALME-3M melanoma) was greater than 37.5 µM and the TGI (UACC-62 melanoma) was greater than 37.5 µM. The TGI (OVCAR-3 ovarian) was 26.5 µM, the TGI (HS 578T breast) was greater than 37.5 µM and the TGI (ACHN renal) was greater than 37.5 µM. For the same compound, the TGI (UO-31 renal) was greater than 37.5 µM, the TGI (NCI-H522 lung) was 26.8 µM and the TGI (EKVX NSCLC) was greater than 37.5 µM. It also gave a TGI (SK-OV-3 ovarian) greater than 25.3 µM, a TGI (HOP-92 NSCLC) of 36.6 µM and a TGI (HCC-2998 colon) greater than 32.6 µM. For the same compound, the TGI (HCT-116 colon) was greater than 37.5 µM, the TGI (OVCAR-8 ovarian) was greater than 37.5 µM and the TGI (SN12C renal) was greater than 37.5 µM. The TGI (CCRF-CEM leukemia) was greater than 32.9 µM, the TGI (A549 NSCLC) was greater than 25.3 µM and the TGI (OVCAR-4 ovarian) was greater than 37.5 µM. For the same compound, the TGI (LOX IMVI melanoma) was greater than 37.5 µM, the TGI (HCT-15 colon) was greater than 37.5 µM and the TGI (HL-60(TB) leukemia) was 17.3 µM. It also gave a TGI (KM12 colon) greater than 37.5 µM, a TGI (RPMI-8226 leukemia) of 27.1 µM and a TGI (HT29 colon) greater than 37.5 µM. The TGI (PC-3 prostate) was greater than 37.5 µM, the TGI (OVCAR-5 ovarian) was greater than 37.5 µM and the TGI (UACC-257 melanoma) was greater than 37.5 µM. The TGI (TK-10 renal) was greater than 37.5 µM, the TGI (BT-549 breast) was 37.4 µM and the TGI (COLO 205 colon) was greater than 30.2 µM. It also gave a TGI (IGROV1 ovarian) greater than 37.5 µM, a TGI (MDA-MB-435) of 16 µM and a TGI (T-47D breast) of 37 µM. The TGI (SW-620 colon) was greater than 37.5 µM, the TGI (HOP-62 NSCLC) was greater than 19.2 µM and the TGI (786-0 renal) was greater than 25 µM. For the same compound, the TGI (K-562 leukemia) was greater than 35.3 µM, the TGI (A498 renal) was greater than 25.8 µM and the TGI (M14 melanoma) was greater than 30.8 µM. For the same compound, the TGI (SK-MEL-2 melanoma) was greater than 37.5 µM, the TGI (SNB-19 CNS) was greater than 37.5 µM and the TGI (MDA-N) was 12.3 µM. The TGI (NCI/ADR-RES ovarian) was greater than 34.2 µM, the TGI (SF-295 CNS) was 37.1 µM and the TGI (MDA-MB-231 breast) was greater than 37.5 µM. For the same compound, the TGI (SF-539 CNS) was 23.6 µM and the TGI (MCF7 breast) was greater than 37.5 µM.

Source: PubChem BioAssay (NCI)
